The test system of data set [1] is Aspergillus fumigatus L98H (TR34/L98H). Nature of the data set: Planktonic fungus growth: broth microdilution assay (L98H). It counts as cell-based. As to conditions: Aspergillus fumigatus, read-out: MIC75 Values against Aspergillus fumigatus isolate L98H. As to the method: (§1) This assay was conducted using a modified method published by EUCAST (Rodriguez-Tudela, et al., 2008). Spores of Aspergillus fumigatus (NCPF2010, NCPF7010 [methionine 220 mutation], NCPF7099 [Glycine G54 mutation]) from Public Health England, Wiltshire; TR34/L98H mutants from St Louis Hospital, Paris, France; TR46/Y121F/T289A mutants from University of Delhi, Delhi, India) were cultured in Sabouraud dextrose agar for 3 days. A stock spore suspension was prepared from a Sabouraud dextrose agar culture by washing with PBS-tween (10 mL; phosphate buffered saline containing 0.05% Tween-20, 100 U/mL penicillin and 100 U/mL streptomycin). The spore count was assessed using a Neubauer haemocytometer and then adjusted to 10^6 spores/mL with PBS. A working suspension of spores (2×10^5 spores/mL) was prepared in filter sterilised, BSA MOPS RPMI-1640 (50 mL; RPMI-1640 containing 2 mM L-glutamine, 0.5% BSA, 2% glucose, 0.165 M MOPS, buffered to pH 7 with NaOH).
(§2) For the assay, BSA MOPS RPMI-1640 (50 μL/well) was added throughout the 384-well plate (Catalogue number 353962, BD Falcon, Oxford, UK) first. Test compounds (0.5 μL DMSO solution) were then added in quadruplicate using an Integra VIAFLO 96 (Integra, Zizers, Switzerland), and mixed well using a plate mixer. Subsequently 50 μL of the working spore suspension prepared above was added to all wells except non-spore control wells. For non-spore control wells, BSA MOPS-RPMI solution (50 μL/well) was added instead. The plate was covered with a plastic lid, and incubated (35° C. with ambient air) for 48 hr. The OD of each well at 530 nm was determined using a multi-scanner (Clariostar: BMG, Buckinghamshire, UK). The percentage inhibition for each well was calculated and the MIC50, MIC75 and MIC90 values were calculated from the concentration-response curve generated for each test compound.

Data set [2] has as its system Aspergillus fumigatus TR46 (TR46/Y121F/T289A). In words: Planktonic fungus growth: broth microdilution assay (TR46). It counts as cell-based. The settings on record: Aspergillus fumigatus, read-out: MIC75 Values against Aspergillus fumigatus isolate TR46. As to the method: as §1, §2
(In general: Broth dilution looks for growth in wells or tubes with falling amounts of substance.)

The test system of data set [3] is Aspergillus fumigatus NCPF7099. In words: Planktonic fungus growth: broth microdilution assay (NCPF7099). The settings on record: Aspergillus fumigatus, NCPF7099, n = 2-3, read-out: MIC75 Values against Aspergillus fumigatus isolate NCPF7099. It counts as cell-based. The procedure:
as §1, §2

Data set [4] is described as follows: Cell viability: resazurin assay. The settings on record: human, 1 day incubation, resazurin, n = 3. It counts as cell-based. The procedure:
BEAS2B cells were seeded in 384-well plates (100 μL; 3000/well/; BD Falcon, Catalogue No 353962) in RPMI-LHC8 (RPMI-1640 and LHC8 media combined in equal proportions) one day before experimentation. For cell-free control wells, RPMI-LHC8 (100 μL) was added. Test compounds (0.5 μL of a DMSO solution) were added to give a final DMSO concentration of 0.5% using an Integra VIAFLO 96 (Integra, Zizers, Switzerland). BEAS2B cells were incubated with each test compound for 1 day (37° C./5% CO2 in RPMI-LHC8). After addition of resazurin stock solution (5 μL, 0.04%) the plates were incubated for a further 4 hr (37° C./5% CO2). The fluorescence of each well at 545 nm (excitation) and 590 nm (emission) was determined using a multi-scanner (Clariostar: BMG Labtech). The percentage loss of cell viability was calculated for each well relative to vehicle (0.5% DMSO) treatment. Where appropriate, a CC50 value was calculated from the concentration-response curve generated from the concentration-response curve for each test compound.
A general note: Alamar Blue is a resazurin reagent that responds to reducing activity.

The nature of data set [5]: Body weight loss of immunocompromised, neutropenic mice caused by A. fumigatus infection. As to conditions: days 1, 2 and 3 (therapeutic); for Body weight loss Day 2 / Body weight loss Day 3: vs weight on day 1. It is filed as in vivo, A/J mice. As to the method: Aspergillus fumigatus (ATCC 13073 [strain: NIH 5233], American Type Culture Collection, Manassas, Va., USA) was grown on Malt agar (Nissui Pharmaceutical, Tokyo, Japan) plates for 6-7 days at RT (24±1° C.). Spores were aseptically dislodged from the agar plates and suspended in sterile distilled water with 0.05% Tween 80 and 0.1% agar. On the day of infection, spore counts were assessed by haemocytometer and the inoculum was adjusted to obtain a concentration of 1.67×10^8 spores mL^−1 of physiological saline. […] On day 0, animals were infected with the spore suspension (30 μL intra-nasally).
Test substances were administered intra-nasally (35 μL of a suspension (0.0032-10.0 mg/mL of drug substance in physiological saline) once daily, on days 1, 2 and 3 only (thereby representing a therapeutic treatment regimen). For extended prophylactic treatment, test compounds (35 μL of a suspension of 0.0032 or 0.016 mg/mL in physiological saline) were administered intra-nasally once daily for seven days. One group was dosed 30 min before infection on day 0 but not subsequently, while a second group was further dosed on days 1, 2 and 3 after infection. The effects of these treatment paradigms were compared with those obtained when treatment was restricted in other groups to either one day or 30 min before inoculation and then on days 1, 2 and 3 post infection in both cases. In a final group, dosing was limited still further with animals dosed twice, one day and 30 min before infection only.
Animal body weights were monitored daily and at 6 hr after the last dose of drug was administered on day 3, the animals were anesthetised, the tracheas cannulated and BALF blood and lung tissue were collected. The levels of IL-6 and TNFα in serum were determined using Quantikine® mouse IL-6 or TNF-α ELISA kit (R&D systems, Inc., Minneapolis, Minn., USA) respectively. Aspergillus GM in serum was determination using Platelia GM-EIA kits (Bio-Rad Laboratories, Redmond, Wash., USA). Cut-off index (COI) was calculated by the formula: Cut-off index=OD in sample/OD in cut-off control provided in kit. For tissue fungal load assays, 100 mg of lung tissue was removed aseptically and homogenized in 0.2 mL of 0.1% agar in sterile distilled water. Serially diluted lung homogenates were plated on Malt agar plates (50 μL/plate), and incubated at 24±1° C. for 72 to 96 h. The colonies of A. fumigatus on each plate were counted and the fungal titre presented herein as CFUs per gram of lung tissue.

[6] abbreviates: Compound (Ia) 0.0032 mg/mL intranasal.
Where [7] appears, read: Compound (Ia) 0.016 mg/mL intranasal.
Setting [8] is: Compound (Ia) 0.08 mg/mL intranasal.
Setting [9] is: Posaconazole 0.4 mg/mL intranasal.
The mark [10] stands for this setting: Posaconazole 2 mg/mL intranasal.
The mark [11] stands for this setting: Posaconazole 10 mg/mL intranasal.

SMILES strings stand for the structures. Converted amounts (≈) assume the structure as drawn. Read-outs that look alike come from different tables or passages of the source.

Usually CC50 stands for the concentration at which the toxic effect on the cells reaches its halfway point. `Cc1cc(N2CCN(c3ccc(C(=O)N[C@H]4CCCC[C@@H]4O)cc3)CC2)ccc1OC[C@@H]1CO[C@@](Cn2cncn2)(c2ccc(F)cc2F)C1` [Compound (Ia), 4-(4-(4-(((3R,5R)-5-((1H-1,2,4-triazol-1-yl)methyl)-5-(2,4-difluorophenyl)tetrahydrofuran-3-yl)methoxy)-3-methylphenyl)piperazin-1-yl)-N-((1S,2S)-2-hydroxycyclohexyl) benzamide]: the MIC in data set [1] turned out to be 0.0127 µM (≈ 0.00872 µg/mL); in data set [2], 0.093 µM (≈ 0.0639 µg/mL); in data set [3], 0.01 µM (≈ 0.00687 µg/mL). In addition, in data set [4] (BEAS2B cells), the CC50 at 1 day was above 14.6 µM. For the same molecule, the “% Inhibition of weight loss Day 2” value is on record as 24% in data set [5] (setting [6]), 35% in data set [5] (setting [7]) and 49% in data set [5] (setting [8]). In addition, the results for the “% Inhibition of weight loss Day 3” value in data set [5] (setting [6]), in data set [5] (setting [7]) and in data set [5] (setting [8]) were 9%, 9% and 22%, respectively. For the same molecule, the “Body weight loss Day 2” value in data set [5] (setting [6]) is 4.2 ± 1.2%; in data set [5] (setting [7]), 3.6 ± 1.2%; in data set [5] (setting [8]) it was 2.8 ± 2.4%. Further, the “Body weight loss Day 3” value in data set [5] (setting [6]) is 9.7 ± 2.1%; in data set [5] (setting [7]) it was 9.7 ± 3.2%; in data set [5] (setting [8]) it was 8.3 ± 6.7%.

With `CC[C@@H]([C@H](C)O)n1ncn(-c2ccc(N3CCN(c4ccc(OC[C@@H]5CO[C@@](Cn6cncn6)(c6ccc(F)cc6F)C5)cc4)CC3)cc2)c1=O` [Posaconazole, reference compound], the values for the MIC in data set [1], in data set [2] and in data set [3] were 0.0983 µM (≈ 0.0689 µg/mL), 0.414 µM (≈ 0.29 µg/mL) and 0.167 µM (≈ 0.117 µg/mL), respectively. Further, in data set [4] (BEAS2B cells), the CC50 at 1 day is above 14.3 µM. For the same molecule, the figures for the “% Inhibition of weight loss Day 2” value in data set [5] (setting [9]), in data set [5] (setting [10]) and in data set [5] (setting [11]) were −15%, 17% and 17%, respectively. Besides, the results for the “% Inhibition of weight loss Day 3” value in data set [5] (setting [9]), in data set [5] (setting [10]) and in data set [5] (setting [11]) were 1%, 24% and 54%, respectively. Moreover, the entries for the “Body weight loss Day 2” value in data set [5] (setting [9]), in data set [5] (setting [10]) and in data set [5] (setting [11]) were 5.4 ± 0.4%, 3.9 ± 1.3% and 3.9 ± 1.3%, respectively. For the same molecule, the figures for the “Body weight loss Day 3” value in data set [5] (setting [9]), in data set [5] (setting [10]) and in data set [5] (setting [11]) were 9.2 ± 4.0%, 7.1 ± 1.9% and 4.3 ± 1.8%, respectively.

Turning to `C[C@@H](c1ncncc1F)[C@](O)(Cn1cncn1)c1ccc(F)cc1F` [Voriconazole], the MIC is 2.58 µM (≈ 0.903 µg/mL) in data set [1], above 2.86 µM in data set [2] and 0.113 µM (≈ 0.0395 µg/mL) in data set [3]. In addition, the CC50 at 1 day in data set [4] (read-out: BEAS2B Cell Viability CC50) was above 28.6 µM.

(Values after patent publication US10513511B2, “Aqueous suspension formulation comprising 4-(4-(4-(((3R,5R)-5-((1H-1,2,4-triazol-1-yl)methyl)-5-(2,4-difluoro-phenyl)tetrahydrofuran-3-yl)methoxy)-3-methylphenyl) or a pharmaceutically acceptable salt thereof” (PULMOCIDE LIMITED, priority 2015, dated 2019).)
